Laboratory results from article PMC5717258, “Bioaccumulation of pharmaceuticals and personal care product chemicals in fish exposed to wastewater effluent in an urban wetland” (Scientific Reports, 2017).
Where two headings read alike, the source gives them in different places. Blank lines part the entries; values can stand above or below the compound they belong to.

Experiments:
[1] = Plasma bioaccumulation factor (BAFP), goldfish; assay type: in vivo, goldfish (Carassius auratus); settings: for BAFP at CPM3, wild goldfish, average: conc in fish plasma/conc in water; for BAFP at CPM3, wild goldfish, range: range based on range of plasma concentrations
Protocol: (§1) Bioaccumulation factor (BAFP) was calculated as concentration in fish plasma (ng/g × 1000) divided by concentration in water (ng/L). Two widely used modeling approaches for predicting organic contaminant bioaccumulation were assessed: the BCF-BAF model for whole body BAFs[53] and the fish-plasma concentration calculation of Huggett et al.[35] modified by Berninger et al.[54]. The latter involves estimating an octanol-water partition coefficient (Kow) adjusted for fraction ionized (log D), using the pKa value to adjust log Kow[54] taking into account the pH of CPM waters. Further information on the calculation of log D, blood-water partitioning (PBW), and plasma concentrations (FPC) is given in the SI.

[2] = cited from earlier work
[3] = for Cootes carp plasma, range of concentrations / wild goldfish plasma, range of concentrations: Cootes Paradise Marsh; for plasma concentration, CPM-C 01: Cootes carp 01, 2011, male; for plasma concentration, CPM-C 2: Cootes carp 2, Sep 27, 2011, male; for plasma concentration, CPM-C 10: Cootes carp 10, Sep 28, 2011, female; for plasma concentration, CPM-C 13: Cootes carp 13, Sep 28, 2011, female; for plasma concentration, CPM-C 20: Cootes carp 20, 2011, male; for plasma concentration, CPM-C 36: Cootes carp 36, Oct 3, 2011, female; for plasma concentration, JH-C 54: Jordan Harbour carp 54, Nov 7, 2011, male; for plasma concentration, JH-C 73: Jordan Harbour carp 73, Nov 7, 2011, female; for plasma concentration, JH-C 74: Jordan Harbour carp 74, Nov 7, 2011, male; for plasma concentration, JH-C 75: Jordan Harbour carp 75, Nov 7, 2011, female; for plasma concentration, JH-C 82: Jordan Harbour carp 82, Nov 7, 2011, female
in vivo = settings: for concentration at 21 days: goldfish (Carassius auratus), in vivo
Summary of the method: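 Pooled caged-goldfish plasma, wild-fish plasma (2.3–2.5 g) and water samples were spiked with isotope-labelled surrogates, then extracted (acetonitrile sonication for plasma; pH-adjusted water) and cleaned up by HLB SPE. PPCPs were quantified by LC/ESI-MS/MS using isotope dilution. Non-detects were set to ½ DL when the analyte was detected in ≥2 samples.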

[4] = design: method as in US EPA Chemistry Dashboard; settings: ref US EPA Chemistry Dashboard; cited from earlier work
[5] = cited from earlier work; remark: listed apart in the source
[6] = cited from earlier work; remark: listed apart in the source
[7] = cited from earlier work; remark: listed apart in the source
[8] = Jordan Harbour brown bullhead, wet weight
Protocol: Plasma from 9 individual male fish (500 µL/individual) was pooled to yield 3 samples for PPCP analysis. […] Plasma from 6 individual carp (2.3–3.5 g) from each location was selected for PPCP analysis. […] Plasma samples were frozen (−80 °C) until analysis.
A total of 20 fish plasma samples from the pooled caged fish (7) and the wild fish (13) along with 12 water samples were selected for analysis. […] A full list of analytes is provided in Supplementary Information. Mass labelled^13C-, or deuterated surrogate internal standards were used for quantification of all analytes via the isotope dilution/surrogate standard quantitation method. Prior to extraction and/or clean-up procedures, aqueous samples were adjusted to pH 2.0, spiked with extraction surrogate standards, then adjusted to pH 4 using tetrasodium ethylenediamine-tetraacetate dihydrate. Plasma samples (2.3–2.5 g) were spiked with extraction surrogate standards, sonicated with 20 mL acetonitrile, then diluted with ultra-pure water to 200 mL. The extracts were cleaned up by solid phase extraction using Oasis HLB cartridges (Waters Ltd. Mississauga ON), filtered, and analyzed by liquid chromatography-electrospray ionization-tandem mass spectrometry (LC/ESI-MS/MS) in positive or negative ionization mode. The analysis of the complete list of analytes (SI Table S1) required a total of five instrumental runs.

[9] = Plasma bioaccumulation factor (BAFP), carp; assay type: in vivo, carp (Cyprinus carpio); settings: for BAFP at CPM3, carp, average: conc in fish plasma/conc in water; for BAFP at CPM3, carp, range: range based on range of plasma concentrations
Protocol: as §1

[10] = human, ref Schulz et al.[56], cited from earlier work
[11] = design: method as in Moreno-González et al. 17; settings: mean ± SD; ref Moreno-González et al. 17; cited from earlier work
[12] = male, goldfish (Carassius auratus), in vivo
[13] = wild goldfish sample 01, 2012, wet weight
[14] = wild goldfish sample 02, 2012, wet weight
[15] = wild goldfish sample 03, 2012, wet weight
[16] = Table S7, ref Meador et al. (2016)

log BAFP, goldfish and carp in this study ([1]; goldfish and carp): 1.53–2.73
plasma concentration, carp, this study (mean) ([3]; in vivo): < mdl
plasma concentration, CPM wild-01 [3, 12]: 0.166 ng/g
plasma concentration, CPM wild-02 [3, 12]: 0.084 ng/g
plasma concentration, CPM wild-03 [3, 12]: 0.066 ng/g
plasma concentration, goldfish, this study (mean) [3, 12]: 0.11 ng/g wet weight or ng/mL for plasma
concentration at 21 days (in vivo; caged goldfish plasma, range of concentrations): 0.06 to 0.17 ng/g
concentration at 21 days (in vivo; plasma concentration, CPM1 caged): < 0.244 ng/g
concentration at 21 days (in vivo; plasma concentration, CPM2 caged): < 0.165 ng/g
concentration at 21 days (in vivo; plasma concentration, CPM3 caged): < 0.123 ng/g
concentration at 21 days (in vivo; plasma concentration, JH caged): < 0.12 ng/g
Structure (SMILES): Cc1cc(C)nc(NS(=O)(=O)c2ccc(N)cc2)n1 [Sulfamethazine]
plasma concentration, carp and tilapia ([2]; ref Zhao et al. 15): 6.47 ng/g wet weight or ng/mL for plasma
log BAFP ([2]; tilapia and carp species in southern China): 1.92–4.18
log Kow [4]: 0.19

Structure (SMILES): CCN(CC)C(=O)c1cccc(C)c1 [DEET, N,N-Diethyl-m-toluamide]
BAFP, CPM1 goldfish caged [1]: 4 L/kg
BAFP, CPM2 goldfish caged ([1]; CPM2, water sample of August 2012): 4 L/kg
BAFP, CPM3 goldfish caged [1]: 4 L/kg
BAFP, JH goldfish caged ([1]; Jordan Harbour): 9 L/kg
BAFP at CPM3, wild goldfish, average [1]: 9 L/kg
BAFP at CPM3, wild goldfish, range [1]: 4 to 11 L/kg
BAFP in carp plasma, median [5]: < 6.2
Cootes carp plasma, range of concentrations [3]: 0.19 to 1.15 ng/g
wild goldfish plasma, range of concentrations [3]: 0.31 to 0.42 ng/g
plasma concentration, CPM-C 01 ([3]; wet weight): 0.194 ng/g
plasma concentration, CPM-C 2 ([3]; wet weight): 1.09 ng/g
plasma concentration, CPM-C 10 ([3]; wet weight): 1.15 ng/g
plasma concentration, CPM-C 13 ([3]; wet weight): 1.1 ng/g
plasma concentration, CPM-C 20 ([3]; wet weight): 0.35 ng/g
plasma concentration, CPM-C 36 ([3]; wet weight): 0.743 ng/g
plasma concentration, JH-C 54 ([3]; wet weight): 0.331 ng/g
plasma concentration, JH-C 73 ([3]; wet weight): 0.083 ng/g
plasma concentration, JH-C 74 ([3]; wet weight): 0.494 ng/g
plasma concentration, JH-C 75 ([3]; wet weight): 0.914 ng/g
plasma concentration, JH-C 78 ([3]; Jordan Harbour carp 78, Nov 7, 2011, male, wet weight): 1.09 ng/g
plasma concentration, JH-C 82 ([3]; wet weight): 0.865 ng/g
plasma concentration, fold higher in carp plasma than in goldfish ([3]; Jordan Harbour, carp vs caged goldfish): about 2 fold
Carp plasma concentration, this study (range) ([3]; Table S7): 0.19 to 1.15 ng/g
Goldfish plasma concentration, this study (range) ([3]; Table S7): 0.23 to 0.58 ng/g
plasma concentration, carp, this study (mean) ([3]; Table S8): 0.77 ng/g wet weight or ng/mL for plasma
plasma concentration, goldfish, this study (mean) ([3]; Table S8): 0.46 ng/g wet weight or ng/mL for plasma
plasma concentration, CPM wild-01 [3, 13]: 0.234 ng/g
plasma concentration, CPM wild-02 [3, 14]: 0.584 ng/g
plasma concentration, CPM wild-03 [3, 15]: 0.56 ng/g
plasma concentration, CPM1 caged (in vivo; CPM1, 07-2014, pooled plasma, wet weight): 0.416 ng/g
plasma concentration, CPM2 caged (in vivo; CPM2, 07-2014, pooled plasma, wet weight): 0.41 ng/g
plasma concentration, CPM3 caged (in vivo; CPM3, 07-2014, pooled plasma, wet weight): 0.314 ng/g
caged goldfish plasma, range of concentrations (in vivo; Cootes Paradise Marsh, range): 0.23 to 0.58 ng/g
plasma concentration, JH caged (in vivo; Jordan Harbour reference site, 07-2014, pooled plasma, wet weight): 0.235 ng/g
Sculpin (whole body) concentration [6, 16]: 0.41 to 2.2 ng/g
whole fish concentration, sculpin ([6]; ref Meador et al. 18): 0.41 - 2.2 ng/g wet weight or ng/mL for plasma
Salmon (whole body) concentration [7, 16]: 0.39 to 1.6 ng/g
whole fish concentration, salmon ([7]; ref Meador et al. 18): 0.39 - 1.6 ng/g wet weight or ng/mL for plasma
plasma concentration, JH-BB [8]: 2.59 ng/g
log Kow [4]: 2.18
BAFP at JH, carp, average ([9]; Jordan Harbour): 32 L/kg
BAFP at JH, carp, range ([9]; Jordan Harbour): 4 to 51 L/kg
BAFP at CPM3, carp, average [9]: 15 L/kg
BAFP at CPM3, carp, range [9]: 4 to 22 L/kg

Structure (SMILES): COc1ccc(C(CN(C)C)C2(O)CCCCC2)cc1 (centres unmarked) [Venlafaxine]
BAFP, CPM1 goldfish caged [1]: 3 L/kg
BAFP, CPM3 goldfish caged [1]: 52 L/kg
BAFP at CPM3, wild goldfish, average [1]: 14 L/kg
BAFP at CPM3, wild goldfish, range [1]: 5 to 31 L/kg
Therapeutic "normal" blood-plasma/serum concentration ([10]; converted from µg/mL): 100 to 400 ng/mL
toxic dose (toxic blood-plasma/serum concentration) [10]: 1000 to 1500 ng/mL
Cootes carp plasma, range of concentrations [3]: 0.04 to 0.27 ng/g
wild goldfish plasma, range of concentrations [3]: 0.04 to 0.17 ng/g
plasma concentration, CPM-C 01 ([3]; wet weight): 0.042 ng/g
plasma concentration, CPM-C 2 ([3]; wet weight): 0.086 ng/g
plasma concentration, CPM-C 10 ([3]; wet weight): 0.061 ng/g
plasma concentration, CPM-C 13 ([3]; wet weight): 0.063 ng/g
plasma concentration, CPM-C 20 ([3]; wet weight): 0.268 ng/g
plasma concentration, CPM-C 36 ([3]; wet weight): 0.057 ng/g
plasma concentration, JH-C 54 ([3]; wet weight): 0.042 ng/g
plasma concentration, JH-C 73 ([3]; wet weight): 0.041 ng/g
plasma concentration, JH-C 74 ([3]; wet weight): 0.043 ng/g
plasma concentration, JH-C 75 ([3]; wet weight): 0.060 ng/g
plasma concentration, JH-C 82 ([3]; wet weight): 0.040 ng/g
plasma concentration, carp, this study (mean) ([3]; Table S8): 0.10 ng/g wet weight or ng/mL for plasma
plasma concentration, goldfish, this study (mean) ([3]; Table S8): 0.11 ng/g wet weight or ng/mL for plasma
plasma concentration, CPM wild-01 [3, 13]: 0.039 ng/g
plasma concentration, CPM wild-02 [3, 14]: 0.258 ng/g
plasma concentration, CPM wild-03 [3, 15]: 0.042 ng/g
concentration at 21 days (in vivo; caged goldfish plasma, range of concentrations, Cootes Paradise Marsh, range): 0.04 to 0.26 ng/g
concentration at 21 days (in vivo; plasma concentration, CPM1 caged, CPM1, 07-2014, pooled plasma, wet weight): 0.165 ng/g
concentration at 21 days (in vivo; plasma concentration, CPM2 caged, CPM2, 07-2014, pooled plasma, wet weight): 0.039 ng/g
concentration at 21 days (in vivo; plasma concentration, CPM3 caged, CPM3, 07-2014, pooled plasma, wet weight): 0.041 ng/g
concentration at 21 days (in vivo; plasma concentration, JH caged, Jordan Harbour reference site, 07-2014, pooled plasma, wet weight): < 0.08 ng/g
log Kow [4]: 3.28
BAFP at JH, carp, average ([9]; Jordan Harbour): 64 L/kg
BAFP at CPM3, carp, average [9]: 12 L/kg
BAFP at CPM3, carp, range [9]: 5 to 32 L/kg
liver & muscle concentration, mullet [11]: 0.68 ± 1.3 ng/g wet weight or ng/mL for plasma
